Source: patent US20260091020A1, “TREATMENT OF ACUTE CANNABINOID OVERDOSE” (Anebulo Pharmaceuticals, Inc., priority 2022, published 2026)
Like-named read-outs stand apart in the source and are kept apart here.

Test: Plasma PK of ANEB-001 and THC, 30 mg or 10 mg oral Compound 1 with 21 mg THC (Example 4)
Type: in vivo, human
Conditions: for concentration at 0 h / concentration at 20 min / concentration at 40 min / concentration at 1 h / concentration at 2 h / concentration at 3 h / concentration at 4 h / concentration at 5 h / concentration at 24 h / AUC(0-t) / Cmax / Tmax: human, in vivo; for concentration at 0 h: 00H00M; for concentration at 20 min: 00H20M; for concentration at 40 min: 00H40M; for concentration at 1 h: 01H00M; for concentration at 2 h: 02H00M; for concentration at 3 h: 03H00M; for concentration at 4 h: 04H00M; for concentration at 5 h: 05H00M; for concentration at 24 h: 24H00M; for Tmax: read-out: THC plasma tmax, Median
Description: Following the general methods of Example 2, the study design was adjusted such that groups received either (a) THC (21 mg)+placebo or (b) THC (21 mg)+Compound 1 (30 mg) (FIG. 14) or either (a) THC (21 mg)+placebo or (b) THC (21 mg)+Compound 1 (10 mg) (FIG. 15). […] Summary of pharmacokinetics of THC with 30 mg ANEB-001 challenge (FIG. 18A and FIG. 18B), AUC after 5 hours (FIG. 18C), AUC last (FIG. 18D) and Cmax (FIG. 18E).
Summary of pharmacokinetics for 30 mg ANEB-001 and 10 mg ANEB-001 challenge with 21 mg THC administration in plasma (FIGS. 19A and 19B); AUC after 5 hours for 10 mg ANEB-001 and 30 mg ANEB-001 (FIG. 19C), AUC last (FIG. 19D), and Cmax (FIG. 19E).
All PK parameter calculations were based on actual sampling time. For calculation of PK parameters, all BLQ concentrations that were between the first and last non-BLQ values were dropped (treated as ‘missing’). For calculation of AUClast and t1/2, additionally all values that were BLQ after the last non-BLQ value were dropped (treated as missing). If data points for concentrations were missing, the AUC parameters were derived by interpolating with regard to the 2 neighboring non-missing concentrations. AUC was calculated using the log-linear trapezoidal rule.
Reporting of drug concentration data. The concentrations are summarized (mean, SD, % CV, median, Min and Max values) by treatment and time, and are also presented graphically as mean over time, with standard deviation as error bars. For graphical and summary purposes of drug concentrations, values below the limit of quantification (BLQ) are set to zero. The SD and CVT are not reported if the mean is 0.
Reporting of PK parameters. The individual PK parameters (except tmax and tlag) are summarized (mean, SD, CV, geometric mean, geometric CV, median, M in and Max) per treatment group and a selection of the PK parameters are presented graphically as boxplots. For tmax and tlag, the median, Min and Max statistics are reported. Boxplots present the median (horizontal solid line), the 25%-75% distribution (IQR), with 1.5× the IQR as whiskers.

[1] = 21 mg THC + 30 mg ANEB-001, read-out: THC in Plasma (concentration), Mean
[2] = 21 mg THC + 30 mg ANEB-001, read-out: THC in Plasma (concentration), Median
[3] = 21 mg, 21 mg THC + Placebo, read-out: THC in Plasma (concentration), Mean
[4] = 21 mg, 21 mg THC + Placebo, read-out: THC in Plasma (concentration), Median

## CCCCCc1cc(O)c2c(c1)OC(C)(C)[C@@H]1CCC(C)=C[C@@H]21 [THC, Δ9-tetrahydrocannabinol]
21 mg THC + 30 mg ANEB-001
  THC Dose normalized Cmax, GeoMean: 0.4482 ng/mL/mg
  THC Dose normalized Cmax, Mean: 0.4658 ng/mL/mg
  THC Dose normalized Cmax, Median: 0.442 ng/mL/mg
  THC plasma tlag, Median: 0 h
  Tmax: 40.2 min
21 mg THC + Placebo
  THC Dose normalized Cmax, GeoMean: 0.2634 ng/mL/mg
  THC Dose normalized Cmax, Mean: 0.2965 ng/mL/mg
  THC Dose normalized Cmax, Median: 0.260 ng/mL/mg
  THC plasma AUC5H, Mean: 14.6 ng·h/mL
  THC plasma tlag, Median: 0 h
  Tmax: 40.2 min
[1]
  concentration at 0 h: 0.0163 ng/mL
  concentration at 20 min: 4.16 ng/mL
  concentration at 40 min: 8.94 ng/mL
  concentration at 1 h: 7.45 ng/mL
  concentration at 2 h: 4.07 ng/mL
  concentration at 3 h: 2.46 ng/mL
  concentration at 4 h: 1.22 ng/mL
  concentration at 5 h: 0.744 ng/mL
  concentration at 24 h: 0.0551 ng/mL
[2]
  concentration at 0 h: 0 ng/mL
  concentration at 20 min: 3.48 ng/mL
  concentration at 40 min: 8.4 ng/mL
  concentration at 1 h: 7.31 ng/mL
  concentration at 2 h: 4.01 ng/mL
  concentration at 3 h: 2.03 ng/mL
  concentration at 4 h: 1.28 ng/mL
  concentration at 5 h: 0.684 ng/mL
  concentration at 24 h: 0 ng/mL
21 mg THC + 30 mg ANEB-001, read-out: THC plasma AUC5H, GeoMean
  AUC(0-t): 16.3 ng·h/mL
21 mg THC + 30 mg ANEB-001, read-out: THC plasma AUC5H, Mean
  AUC(0-t): 17 ng·h/mL
21 mg THC + 30 mg ANEB-001, read-out: THC plasma AUC5H, Median
  AUC(0-t): 16.1 ng·h/mL
21 mg THC + 30 mg ANEB-001, read-out: THC plasma AUClast, GeoMean
  AUC(0-t): 17.9 ng·h/mL
21 mg THC + 30 mg ANEB-001, read-out: THC plasma AUClast, Mean
  AUC(0-t): 19.3 ng·h/mL
21 mg THC + 30 mg ANEB-001, read-out: THC plasma AUClast, Median
  AUC(0-t): 18.4 ng·h/mL
21 mg THC + 30 mg ANEB-001, read-out: THC plasma Cmax, GeoMean
  Cmax: 9.41 ng/mL
21 mg THC + 30 mg ANEB-001, read-out: THC plasma Cmax, Mean
  Cmax: 9.78 ng/mL
21 mg THC + 30 mg ANEB-001, read-out: THC plasma Cmax, Median
  Cmax: 9.28 ng/mL
[3]
  concentration at 0 h: 0 ng/mL
  concentration at 20 min: 2.22 ng/mL
  concentration at 40 min: 6.1 ng/mL
  concentration at 1 h: 5.78 ng/mL
  concentration at 2 h: 2.85 ng/mL
  concentration at 3 h: 3.23 ng/mL
  concentration at 4 h: 1.66 ng/mL
  concentration at 5 h: 1.06 ng/mL
  concentration at 24 h: 0.0206 ng/mL
[4]
  concentration at 0 h: 0 ng/mL
  concentration at 20 min: 2.01 ng/mL
  concentration at 40 min: 5.46 ng/mL
  concentration at 1 h: 5.47 ng/mL
  concentration at 2 h: 1.86 ng/mL
  concentration at 3 h: 1.47 ng/mL
  concentration at 4 h: 0.894 ng/mL
  concentration at 5 h: 0.456 ng/mL
  concentration at 24 h: 0 ng/mL
21 mg, 21 mg THC + Placebo, read-out: THC plasma AUC5H, GeoMean
  AUC(0-t): 12 ng·h/mL
21 mg, 21 mg THC + Placebo, read-out: THC plasma AUC5H, Median
  AUC(0-t): 9.32 ng·h/mL
21 mg, 21 mg THC + Placebo, read-out: THC plasma AUClast, GeoMean
  AUC(0-t): 13 ng·h/mL
21 mg, 21 mg THC + Placebo, read-out: THC plasma AUClast, Mean
  AUC(0-t): 18.3 ng·h/mL
21 mg, 21 mg THC + Placebo, read-out: THC plasma AUClast, Median
  AUC(0-t): 9.32 ng·h/mL
21 mg, 21 mg THC + Placebo, read-out: THC plasma Cmax, GeoMean
  Cmax: 5.53 ng/mL
21 mg, 21 mg THC + Placebo, read-out: THC plasma Cmax, Mean
  Cmax: 6.23 ng/mL
21 mg, 21 mg THC + Placebo, read-out: THC plasma Cmax, Median
  Cmax: 5.47 ng/mL
